Legend:
[1] = biological target: T1, HDAC1 (Homo sapiens, UniProt Q13547); test: HDAC1 enzyme inhibition assay (single point and 10-dose IC50, Reaction Biology); format: biochemical
T1 construct: purchased Reaction Biology corporation (contract assay)
Description: (§1) All IC50 measurements we performed by Reaction Biology corporation. Compounds were tested in
(§2) dilution starting at 1 uM. […]
(§3) (RHK(Ac)K(Ac)AMC). IC50 values were calculated using the GraphPad Prism 4 program based on a
(§4) sigmoidal dose-response equation. […]

[2] = tested on: acetylated tubulin in A549 cells; test: Tubulin acetylation in A549 cells, immunostaining with high content imaging; format: cell-based, human; conditions: 24 h
Description: (§5) To confirm the observed activities of the selected test compounds against HDAC6, the acetylation status of tubulin in the human lung cancer cell line A549 was investigated by immunostaining combined with automated high content image analysis (see supplementary material for full details). […] The apparent drop in histone acetylation by both compounds above 10 μM is indicative of a potential cytotoxicity at higher concentrations (data not shown).
(§6) Figure 5 Cell-based assessment of HDAC activity and selectivity. Dose and time-dependency of tubulin and histone acetylation by test compounds. A549 cells were treated with (A,B) different concentrations (0–50 µM) of CF011, KNH019 and tubastatin for 24 h or with (C,D) 1 µM over different time intervals before (A,C) tubulin acetylation or (B,D) histone acetylation were automatically quantified using high content imaging. Data represent the average of four independent experiments with four replicate wells/experiments. The statistical significances of effects compared to the untreated control were analysed using Brown–Forsythe and Welch one-way ANOVA analyses using Graph Pad Prism. The significance was set as * 0.05 > p ≥ 0.01, ** 0.01 > p ≥ 0.002. Error bars represent the Standard Error of Mean (SEM). (E) Representative fluorescence images show tubulin acetylation (yellow), histone acetylation (red) and nuclear counterstain (DAPI, blue) after 24 h of exposure to test compounds. Secondary antibodies were detected using excitation/emission filters for CY3 (excitation: 542/27 nm, emission: 597/45 nm), CY5 (excitation: 632/22 nm, emission: 684/25 nm) and DAPI (excitation: 390/18 nm, emission: 435/48 nm), respectively. […]
(§7) S2.2 Cell Culture, Treatment and Immunostaining:
(§8) A549 cells (ATCC® CCL-185™, In Vitro Technologies Pty. Ltd., Victoria, Australia) were cultured in low glucose Dulbecco’s Modified Eagle Media (DMEM, 1 g/L glucose, 0.584 g/L L-glutamine, 3.7 g/L sodium bicarbonate, 10 % fetal bovine serum) under standard conditions (> 90 % humidity, 37 °C temperature, 5 % CO 2). For experiments, 5,000 cells/ well were seeded in 100 µl serum free DMEM in 384 well plates (µCLEAR®, Greiner) and left to adhere for 24 hours before the treatment. Cells were treated with 100 µl of test compound -containing media for up to 24 hours before cells were fixed with 4 % paraformaldehyde (PFA) solution in PBS (10 minutes at room temperature (RT)) and permeabi lized with 50 µl of 0.5 % Triton X -100 in PBS. Subsequently, cells were blocked in PBST (5% fetal bovine serum, 5% bovine serum albumin, 5% goat serum, 0.1% Tween 20 in PBS) before stained with anti - acetylated tubulin (T7451, Sigma Aldrich; 1:1,000) and an ti-acetylated histone antibody (ab47915, Abcam; 1:1,000) overnight at 4 °C. Subsequently, cells were exposed to secondary antibodies (goat anti-mouse Alexa fluor 594 (Invitrogen; 1:10,000) and goat anti -rabbit Alexa fluor 647 (Invitrogen; 1:10,000) in PBST ) and DAPI solution (Invitrogen; 1:10,000 in PBST) before images were acquired.
(§9) Fluorescence images were acquired (10x magnification, 2 -D format) using the InCell 2200 high content imaging system (V7.3, GE Healthcare life sciences) wi th CY3 (excitation: 542/27 nm, emission: 597/45 nm), CY5 (excitation: 632/22 nm, emission: 684/25 nm) and DAPI (excitation: 390/18 nm, emission:
435/48 nm) filters. Two images/well at predefined positions were automatically acquired with 4 replicate wells for each treatment condition/ experiment. At least 3 independent experiments were conducted for each condition. Acquired images were automatically processed using InCarta software (v1.6, GE Healthcare life sciences). All images were manually checked for ar tefacts. Images with less than 30 cells were excluded from the analysis. Excel and GraphPad Prism was used for statistical analysis and graphical representation. Data was expressed as % Relative Fluorescence Units (RFU) […]

[3] = biological target: T2, HDAC11 (Homo sapiens, UniProt Q96DB2); test: HDAC11 enzyme inhibition assay (single point and 10-dose IC50, Reaction Biology); format: biochemical
T2 construct: purchased Reaction Biology corporation (contract assay)
T2 sequence (Q96DB2 1-347): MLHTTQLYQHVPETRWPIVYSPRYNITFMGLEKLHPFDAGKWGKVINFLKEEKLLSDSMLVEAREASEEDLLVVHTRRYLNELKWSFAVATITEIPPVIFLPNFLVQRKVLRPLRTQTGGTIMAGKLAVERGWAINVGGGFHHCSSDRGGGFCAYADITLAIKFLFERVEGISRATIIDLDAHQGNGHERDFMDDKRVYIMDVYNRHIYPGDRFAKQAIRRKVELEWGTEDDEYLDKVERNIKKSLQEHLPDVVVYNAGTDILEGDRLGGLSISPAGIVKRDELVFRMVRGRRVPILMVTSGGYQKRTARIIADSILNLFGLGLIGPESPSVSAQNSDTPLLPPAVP
Description: Against HDAC6, inhibition was determined using 0.01 µM of the inhibitor.
All IC50 measurements we performed by Reaction Biology corporation. Compounds were tested in […]
dilution starting at 1 uM.
Substrate for HDAC11: 50 uM Fluorogenic HDAC Class2a Substrate […]
(Trifluoroacetyl Lysine).
(RHK(Ac)K(Ac)AMC). IC50 values were calculated using the GraphPad Prism 4 program based on a sigmoidal dose-response equation. […]

[4] = tested on: acetylated histone in A549 cells; test: Histone acetylation in A549 cells, immunostaining with high content imaging; format: cell-based, human; conditions: 24 h
Description: as §5, §6, §7, §8, §9
435/48 nm) filters. […] Data was expressed as % Relative Fluorescence Units (RFU) […]

[5] = biological target: T3, HDAC3 (Homo sapiens, UniProt O15379); test: HDAC3 enzyme inhibition assay (single point and 10-dose IC50, Reaction Biology); format: biochemical
T3 construct: purchased Reaction Biology corporation (contract assay)
T3 sequence (O15379 whole entry): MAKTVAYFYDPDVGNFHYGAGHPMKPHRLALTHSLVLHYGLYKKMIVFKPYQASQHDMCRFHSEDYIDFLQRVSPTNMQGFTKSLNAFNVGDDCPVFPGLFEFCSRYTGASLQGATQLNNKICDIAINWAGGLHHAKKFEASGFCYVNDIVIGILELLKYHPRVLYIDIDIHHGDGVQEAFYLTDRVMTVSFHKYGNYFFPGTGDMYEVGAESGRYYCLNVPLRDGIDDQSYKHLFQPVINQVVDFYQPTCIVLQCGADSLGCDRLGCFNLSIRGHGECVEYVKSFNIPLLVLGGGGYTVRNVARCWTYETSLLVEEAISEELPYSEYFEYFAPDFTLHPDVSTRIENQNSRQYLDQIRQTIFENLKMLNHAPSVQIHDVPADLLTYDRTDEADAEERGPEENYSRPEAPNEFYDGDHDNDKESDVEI
T3 sequence (Q9Y618 395-489 partner limits assumed): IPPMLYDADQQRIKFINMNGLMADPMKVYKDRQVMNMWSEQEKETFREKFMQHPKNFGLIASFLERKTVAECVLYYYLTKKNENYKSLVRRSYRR
Description: as §1, §2, §3, §4

[6] = average of two independent measurements
[7] = single point, inhibitor 1.0 μM, average of two measurements, ±2%

T1 sequence (Q13547 whole entry): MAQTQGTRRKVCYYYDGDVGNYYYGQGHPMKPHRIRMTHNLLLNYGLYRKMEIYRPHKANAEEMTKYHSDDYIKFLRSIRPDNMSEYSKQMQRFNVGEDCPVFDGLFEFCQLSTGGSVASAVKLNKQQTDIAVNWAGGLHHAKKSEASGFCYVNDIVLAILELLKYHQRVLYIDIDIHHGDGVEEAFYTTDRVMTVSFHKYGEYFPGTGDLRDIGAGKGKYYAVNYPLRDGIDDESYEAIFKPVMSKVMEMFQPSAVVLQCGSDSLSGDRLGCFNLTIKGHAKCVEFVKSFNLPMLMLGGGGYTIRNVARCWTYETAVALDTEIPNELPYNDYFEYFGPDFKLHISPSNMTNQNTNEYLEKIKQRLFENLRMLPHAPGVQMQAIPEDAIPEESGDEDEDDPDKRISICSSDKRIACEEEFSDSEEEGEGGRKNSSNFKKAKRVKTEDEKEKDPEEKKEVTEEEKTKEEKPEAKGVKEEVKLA

- IC50 [1, 6]: 91 ± 6 nM
- Selectivity factor (SF) = HDAC1 IC50/HDAC6 IC50 ([1]; selectivity for HDAC6 over HDAC1): 91
- HDAC1 average enzyme isoform activity (percentage of full enzyme activity) [1, 7]: 36.3%
- IC50 [3, 6]: 290 ± 35 nM
- Selectivity factor (SF) HDAC11 against HDAC6 ([3]; selectivity for HDAC6 over HDAC11): 290
- HDAC11 average enzyme isoform activity (percentage of full enzyme activity) [3, 7]: 67.5%
- IC50 [5, 6]: 64 ± 0.2 nM
- Selectivity factor (SF) HDAC3 against HDAC6 ([5]; selectivity for HDAC6 over HDAC3): 64
- HDAC3 average enzyme isoform activity (percentage of full enzyme activity) [5, 7]: 24.1%
Compound: O=C(CCCCCN1C(=O)c2cccc3cc(NC(=O)c4ccccc4)cc(c23)C1=O)NO [KNH019]
- Increase of tubulin acetylation compared to untreated cells (up to) ([2]; 0-50 µM, dose-dependent): ~1.5 fold
- Tubulin acetylation in representative immunostaining images ([2]; 10 µM): strongly induce
- Concentration from which tubulin acetylation was significantly increased ([2]; compared to untreated cells): 10^−6 mM
- Histone acetylation in representative immunostaining images ([4]; 10 µM): strongly induce
- Concentration from which histone acetylation was significantly increased ([4]; compared to untreated cells): 10^−2 mM
